Test results from ChEMBL document CHEMBL2034816, “Synthesis and molecular modelling studies of novel carbapeptide analogs for inhibition of HIV-1 protease” (Eur J Med Chem, 2012).

How the values were obtained:
Protease [1] = molecular target: T1, Protease (Human immunodeficiency virus 1, UniProt Q9YQ12); assay: Inhibition of HIV1 protease
Protease [2] = molecular target: T1, Protease; assay: Inhibition of South African HIV1 subtype C protease expressed in Escherichia coli BL21S4 (DE3)pLysS cells using Lys-Ala-Arg-Val-Nle-p-nitro-Phe-Glu-Ala-Nle-NH2 as substrate by spectrophotometry
[3] = Ratio of compound IC50 to lopinavir IC50 for human MT4 cells after 5 days by XTT assay; assay type: ADME, cell-based; conditions: read-out: Ratio IC50

T1 sequence (Q9YQ12 whole entry): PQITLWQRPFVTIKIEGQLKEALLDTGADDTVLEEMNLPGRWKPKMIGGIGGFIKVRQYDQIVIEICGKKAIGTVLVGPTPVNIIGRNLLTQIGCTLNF

| Structure (SMILES) | IC50 (Protease [1]) [µM] | IC50 (Protease [2]) [nM] | selectivity ratio at 120 h [3] | Ki (Protease [1]) [nM] |
| --- | --- | --- | --- | --- |
| CC(C)(C)OC(=O)N[C@@H](Cc1ccccc1)[C@@H](O)CC(C/C=C/c1ccccc1)C(=O)N[C@H](C(=O)NC[C@H]1OC(O)[C@H](O)[C@H]1O)C1CCCCC1 (stereo partly specified) | 0.00017 | – | – | – |
| CC(C)[C@H](NC(=O)C[C@@H](NCc1ccccc1)C1O[C@@H]2OC(C)(C)O[C@@H]2[C@H]1OCc1ccccc1)C(=O)N[C@@H](C)C(=O)O (stereo partly specified) | – | 1090 | > 5000 | – |
| CC(C)[C@H](NC(=O)C[C@H](NCc1ccccc1)C1O[C@@H]2OC(C)(C)O[C@@H]2[C@H]1OCc1ccccc1)C(=O)N[C@@H](C)C(=O)O (stereo partly specified) | – | 1290 | > 5000 | – |
| CC(C)[C@H](NC(=O)C[C@@H](N)C1O[C@@H]2OC(C)(C)O[C@@H]2[C@H]1O)C(=O)N[C@@H](C)C(=O)O (stereo partly specified) | – | 950 | > 5000 | – |
| CC(C)[C@H](NC(=O)C[C@H](N)C1O[C@@H]2OC(C)(C)O[C@@H]2[C@H]1O)C(=O)N[C@@H](C)C(=O)O (stereo partly specified) | – | 1010 | > 5000 | – |
| CC(C)[C@H](NC(=O)[C@H](C)NC(=O)C[C@@H](NCc1ccccc1)C1O[C@@H]2OC(C)(C)O[C@@H]2[C@H]1OCc1ccccc1)C(=O)O (stereo partly specified) | – | 1020 | > 5000 | – |
| CC(C)[C@H](NC(=O)[C@H](C)NC(=O)C[C@H](NCc1ccccc1)C1O[C@@H]2OC(C)(C)O[C@@H]2[C@H]1OCc1ccccc1)C(=O)O (stereo partly specified) | – | 760 | > 5000 | – |
| CC(C)[C@H](NC(=O)[C@H](C)NC(=O)C[C@@H](N)C1O[C@@H]2OC(C)(C)O[C@@H]2[C@H]1O)C(=O)O (stereo partly specified) | – | > 10000 | > 5000 | – |
| CC(C)[C@H](NC(=O)[C@H](C)NC(=O)C[C@H](N)C1O[C@@H]2OC(C)(C)O[C@@H]2[C@H]1O)C(=O)O (stereo partly specified) | – | > 10000 | > 5000 | – |
| CC(C)[C@H](NC(=O)[C@H](C)NC(=O)C[C@H](NCc1ccccc1)C1O[C@@H]2OC(C)(C)O[C@@H]2[C@H]1O)C(=O)O (stereo partly specified) | – | 710 | > 5000 | – |
| O=C(N[C@@H]1Cc2ccccc2[C@@H]1O)C(OCc1ccccc1)[C@H](O)[C@@H](O)C(OCc1ccccc1)C(=O)N[C@@H]1Cc2ccccc2[C@@H]1O (stereo partly specified) | – | – | – | 1.22 |
| COC(=O)[C@H](CC(C)C)NC(=O)[C@H](Cc1ccccc1)NC(=O)[C@@H]1O[C@@H](C(=O)N[C@@H](Cc2ccccc2)C(C)N[C@@H](CC(C)C)C(=O)OC)[C@@H](O)[C@@H]1O (stereo partly specified) | > 2000 | – | – | – |
